Reference: PubChem BioAssay AID248 (DTP/NCI, 2004)
Values joined by “and” are separate entries in the source; they are usually repeats but may differ in a detail not shown here. Equal values may be shown once. Inconclusive results and toxic doses are left out. No stated cut-off is given here; in the data, active means T/C of 150% or more; inactive means T/C below 125%.

Tested on: L1210 leukemia ip in BDF1 mice, survival T/C
Test: NCI In Vivo Anticancer Drug Screen. Data for tumor model L1210 Leukemia (intraperitoneal) in B6D2F1 (BDF1) mice
Conditions: endpoint: mean survival time, higher = longer survival
In short: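 Mice bearing the transplanted tumor received compound or vehicle. Survival of the treated group was divided by that of the vehicle-treated control group to give the ratio.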

[1] = dose: 12.5 mg/kg/injection, schedule: Q01DX001 (ip), vehicle: Klucel (hydroxypropylcellulose) (HPC)
[2] = dose: 25.0 mg/kg/injection, schedule: Q01DX001 (ip), vehicle: Klucel (hydroxypropylcellulose) (HPC)
[3] = dose: 50.0 mg/kg/injection, schedule: Q01DX001 (ip), vehicle: Klucel (hydroxypropylcellulose) (HPC)
[4] = dose: 100.0 mg/kg/injection, schedule: Q01DX009 (ip), vehicle: Klucel (hydroxypropylcellulose) (HPC)
[5] = dose: 200.0 mg/kg/injection, schedule: Q01DX009 (ip), vehicle: Klucel (hydroxypropylcellulose) (HPC)
[6] = dose: 400.0 mg/kg/injection, schedule: Q01DX009 (ip), vehicle: Klucel (hydroxypropylcellulose) (HPC)
[7] = dose: 100.0 mg/kg/injection, schedule: Q04DX003 (ip), vehicle: saline
[8] = dose: 200.0 mg/kg/injection, schedule: Q04DX003 (ip), vehicle: saline
[9] = dose: 400.0 mg/kg/injection, schedule: Q04DX003 (ip), vehicle: saline
[10] = dose: 100.0 mg/kg/injection, schedule: Q04DX003 (ip), vehicle: Klucel (hydroxypropylcellulose) (HPC)

Measured: T/C

O=C(CBr)c1ccc(F)cc1
inactive: dose: 2.0 mg/kg/injection, schedule: Q01DX015 (ip), vehicle: carboxymethylcellulose (CMC) 93 % of control | dose: 4.0 mg/kg/injection, schedule: Q01DX015 (ip), vehicle: carboxymethylcellulose (CMC) 105 % of control | dose: 5.0 mg/kg/injection, schedule: Q01DX001 (ip), vehicle: saline 97 % of control | dose: 8.0 mg/kg/injection, schedule: Q01DX015 (ip), vehicle: carboxymethylcellulose (CMC) 88 % of control | dose: 10.0 mg/kg/injection, schedule: Q01DX001 (ip), vehicle: saline 100 % of control | dose: 15.0 mg/kg/injection, schedule: Q01DX015 (ip), vehicle: carboxymethylcellulose (CMC) 97 % of control | dose: 20.0 mg/kg/injection, schedule: Q01DX001 (ip), vehicle: saline 92 % of control | dose: 40.0 mg/kg/injection, schedule: Q01DX001 (ip), vehicle: saline 92 % of control | dose: 80.0 mg/kg/injection, schedule: Q01DX001 (ip), vehicle: saline 97 % of control

C[Si](C)(O[Si](C)(C)C1C=CC=C1)C1C=CC=C1
inactive: [1] 91 % of control | [2] 91 % of control | [3] 88 % of control

Cc1cc(Cl)c(OC(=O)Nc2ccccc2C(F)(F)F)cc1C
inactive: [4] 107 % of control | [5] 107 % of control | [6] 98 % of control

CC(=O)OCC(=O)C1CCC=CC1OC(C)=O (stereo unspecified)
inactive: dose: 100.0 mg/kg/injection, schedule: Q01DX009 (ip), vehicle: saline 105 % of control | [7] 93 % of control | dose: 200.0 mg/kg/injection, schedule: Q01DX009 (ip), vehicle: saline 105 % of control | [8] 91 % of control | dose: 400.0 mg/kg/injection, schedule: Q01DX009 (ip), vehicle: saline 98 % of control | [9] 91 % of control

O=C(O)c1cccc(Cl)c1F
inactive: dose: 50.0 mg/kg/injection, schedule: Q04DX002 (ip), vehicle: saline with Tween-80 97 % of control | dose: 100.0 mg/kg/injection, schedule: Q04DX002 (ip), vehicle: saline with Tween-80 97 % of control and 107 % of control | dose: 200.0 mg/kg/injection, schedule: Q04DX002 (ip), vehicle: saline with Tween-80 97 % of control

CC(C)NC(=O)C1C2C=CC(C2)C1C(=O)NC(C)C (stereo unspecified)
inactive: dose: 100.0 mg/kg/injection, schedule: Q04DX003 (ip), vehicle: saline with Tween-80 100 % of control | dose: 200.0 mg/kg/injection, schedule: Q04DX003 (ip), vehicle: saline with Tween-80 100 % of control | dose: 400.0 mg/kg/injection, schedule: Q04DX003 (ip), vehicle: saline with Tween-80 91 % of control

CC(=O)OC(C(=O)NC(CC(C)C)C(=O)O)c1ccccc1 (stereo unspecified)
inactive: dose: 100.0 mg/kg/injection, schedule: Q01DX001 (ip), vehicle: acetone 98 % of control | dose: 200.0 mg/kg/injection, schedule: Q01DX001 (ip), vehicle: acetone 94 % of control | dose: 400.0 mg/kg/injection, schedule: Q01DX001 (ip), vehicle: acetone 98 % of control

Cc1cc(C)c(S(=O)(=O)ON=C2c3ccccc3-c3ccccc32)c(C)c1
inactive: [4] 107 % of control | [10] 105 % of control | [5] 104 % of control | dose: 200.0 mg/kg/injection, schedule: Q04DX003 (ip), vehicle: Klucel (hydroxypropylcellulose) (HPC) 110 % of control | [6] 101 % of control | dose: 400.0 mg/kg/injection, schedule: Q04DX003 (ip), vehicle: Klucel (hydroxypropylcellulose) (HPC) 97 % of control

CCC(=O)c1ccc(OC(C)=O)cc1
inactive: dose: 222.0 mg/kg/injection, schedule: Q01DX Z (ip), vehicle: carboxymethylcellulose (CMC) 100 % of control | dose: 333.0 mg/kg/injection, schedule: Q01DX Z (ip), vehicle: carboxymethylcellulose (CMC) 118 % of control | dose: 500.0 mg/kg/injection, schedule: Q01DX Z (ip), vehicle: carboxymethylcellulose (CMC) 108 % of control

CC12CCCCC1C(C(N)=O)C(=O)O2 (stereo unspecified)
inactive: dose: 100.0 mg/kg/injection, schedule: Q01DX001 (ip), vehicle: saline 105 % of control | dose: 200.0 mg/kg/injection, schedule: Q01DX001 (ip), vehicle: saline 97 % of control | dose: 400.0 mg/kg/injection, schedule: Q01DX001 (ip), vehicle: saline 105 % of control

NC1CCC(C(=O)O)NC1 (stereo unspecified)
inactive: [7] 104 % of control | [8] 107 % of control | [9] 109 % of control

O=C(CCCN1CCC(O)(c2cccc(C(F)(F)F)c2)CC1)c1ccc(F)cc1
inactive: dose: 0.04 mg/kg/injection, schedule: Q03HX024 (ip), vehicle: Klucel (hydroxypropylcellulose) (HPC) 102 % of control | dose: 0.09 mg/kg/injection, schedule: Q03HX024 (ip), vehicle: Klucel (hydroxypropylcellulose) (HPC) 107 % of control | dose: 0.19 mg/kg/injection, schedule: Q03HX024 (ip), vehicle: Klucel (hydroxypropylcellulose) (HPC) 105 % of control | dose: 0.39 mg/kg/injection, schedule: Q03HX024 (ip), vehicle: Klucel (hydroxypropylcellulose) (HPC) 107 % of control | dose: 0.78 mg/kg/injection, schedule: Q03HX004 (ip), vehicle: Klucel (hydroxypropylcellulose) (HPC) 96 % of control | dose: 0.78 mg/kg/injection, schedule: Q03HX024 (ip), vehicle: Klucel (hydroxypropylcellulose) (HPC) 107 % of control | dose: 1.56 mg/kg/injection, schedule: Q01DX009 (ip), vehicle: Klucel (hydroxypropylcellulose) (HPC) 111 % of control | dose: 1.56 mg/kg/injection, schedule: Q03HX004 (ip), vehicle: Klucel (hydroxypropylcellulose) (HPC) 91 % of control | dose: 1.56 mg/kg/injection, schedule: Q03HX024 (ip), vehicle: Klucel (hydroxypropylcellulose) (HPC) 97 % of control | dose: 2.0 mg/kg/injection, schedule: Q01DX009 (ip), vehicle: Klucel (hydroxypropylcellulose) (HPC) 100 % of control | dose: 3.12 mg/kg/injection, schedule: Q01DX009 (ip), vehicle: Klucel (hydroxypropylcellulose) (HPC) 107 % of control and 122 % of control | dose: 3.12 mg/kg/injection, schedule: Q03HX024 (ip), vehicle: Klucel (hydroxypropylcellulose) (HPC) 100 % of control and 86 % of control | dose: 3.12 mg/kg/injection, schedule: Q04DX003 (ip), vehicle: Klucel (hydroxypropylcellulose) (HPC) 91 % of control and 101 % of control | dose: 4.0 mg/kg/injection, schedule: Q01DX009 (ip), vehicle: Klucel (hydroxypropylcellulose) (HPC) 92 % of control | dose: 6.25 mg/kg/injection, schedule: Q01DX001 (ip), vehicle: Klucel (hydroxypropylcellulose) (HPC) 106 % of control | dose: 6.25 mg/kg/injection, schedule: Q01DX009 (ip), vehicle: Klucel (hydroxypropylcellulose) (HPC) 110 % of control | dose: 6.25 mg/kg/injection, schedule: Q04DX003 (ip), vehicle: Klucel (hydroxypropylcellulose) (HPC) 100 % of control and 102 % of control and 108 % of control | [1] 106 % of control | dose: 12.5 mg/kg/injection, schedule: Q01DX009 (ip), vehicle: Klucel (hydroxypropylcellulose) (HPC) 121 % of control | dose: 12.5 mg/kg/injection, schedule: Q04DX003 (ip), vehicle: Klucel (hydroxypropylcellulose) (HPC) 94 % of control and 103 % of control | dose: 18.75 mg/kg/injection, schedule: Q01DX001 (ip), vehicle: Klucel (hydroxypropylcellulose) (HPC) 91 % of control | [2] 104 % of control and 119 % of control and 123 % of control | dose: 25.0 mg/kg/injection, schedule: Q01DX009 (ip), vehicle: Klucel (hydroxypropylcellulose) (HPC) 91 % of control | dose: 25.0 mg/kg/injection, schedule: Q04DX003 (ip), vehicle: Klucel (hydroxypropylcellulose) (HPC) 107 % of control and 117 % of control | dose: 37.5 mg/kg/injection, schedule: Q01DX001 (ip), vehicle: Klucel (hydroxypropylcellulose) (HPC) 103 % of control | [3] 123 % of control | dose: 50.0 mg/kg/injection, schedule: Q01DX009 (ip), vehicle: Klucel (hydroxypropylcellulose) (HPC) 92 % of control | dose: 50.0 mg/kg/injection, schedule: Q04DX003 (ip), vehicle: Klucel (hydroxypropylcellulose) (HPC) 97 % of control and 116 % of control | dose: 75.0 mg/kg/injection, schedule: Q01DX001 (ip), vehicle: Klucel (hydroxypropylcellulose) (HPC) 91 % of control | dose: 100.0 mg/kg/injection, schedule: Q01DX001 (ip), vehicle: Klucel (hydroxypropylcellulose) (HPC) 110 % of control and 115 % of control and 121 % of control | [10] 116 % of control | dose: 150.0 mg/kg/injection, schedule: Q01DX001 (ip), vehicle: Klucel (hydroxypropylcellulose) (HPC) 100 % of control

Nc1cc(S(=O)(=O)O)cc2cc(S(=O)(=O)O)cc(O)c12
inactive: dose: 50.0 mg/kg/injection, schedule: Q04DX002 (ip), vehicle: saline 92 % of control | dose: 100.0 mg/kg/injection, schedule: Q04DX002 (ip), vehicle: saline 100 % of control and 118 % of control | dose: 200.0 mg/kg/injection, schedule: Q04DX002 (ip), vehicle: saline 92 % of control | dose: 400.0 mg/kg/injection, schedule: Q04DX002 (ip), vehicle: saline 122 % of control and 92 % of control
